Test results from ChEMBL document CHEMBL5055642, “Strobiloscyphones A-F, 6-Isopentylsphaeropsidones and Other Metabolites from Strobiloscypha sp. AZ0266, a Leaf-Associated Fungus of Douglas Fir” (J Nat Prod, 2021).
In brackets after ≈: the same amount, converted by molar mass. Activity calls are given as the source filed them. The rule behind the calls is not given here.

Key:
[1] = system: SF-268; assay: Cytotoxicity against human SF-268 cells assessed as inhibition of cell proliferation measured after 72 hrs by resazurin dye based AlamarBlue assay; format: functional; conditions: SF-268, 72 h
[2] = system: WI-38; assay: Cytotoxicity against human WI-38 cells assessed as inhibition of cell proliferation up to 10 uM measured after 72 hrs by resazurin dye based AlamarBlue assay; conditions: wi-38, 72 h
[3] = system: PC-3M; assay: Cytotoxicity against human PC-3M cells assessed as inhibition of cell proliferation measured after 72 hrs by resazurin dye based AlamarBlue assay; format: functional
[4] = system: MCF7; assay: Cytotoxicity against human MCF7 cells assessed as inhibition of cell proliferation measured after 72 hrs by resazurin dye based AlamarBlue assay; format: functional; conditions: MCF7, 72 h
[5] = system: MDA-MB-231; assay: Cytotoxicity against human MDA-MB-231 cells assessed as inhibition of cell proliferation measured after 72 hrs by resazurin dye based AlamarBlue assay; format: functional; conditions: MDA-MB-231, 72 h
[6] = system: NCI-H460; assay: Cytotoxicity against human NCI-H460 cells assessed as inhibition of cell proliferation up to 10 uM measured after 72 hrs by resazurin dye based AlamarBlue assay; format: functional
[7] = system: WI-38; assay: Cytotoxicity against human WI-38 cells assessed as inhibition of cell proliferation measured after 72 hrs by resazurin dye based AlamarBlue assay; conditions: WI-38, 72 h
[8] = system: MCF7; assay: Cytotoxicity against human MCF7 cells assessed as inhibition of cell proliferation up to 10 uM measured after 72 hrs by resazurin dye based AlamarBlue assay; format: functional
[9] = system: SF-268; assay: Cytotoxicity against human SF-268 cells assessed as inhibition of cell proliferation up to 10 uM measured after 72 hrs by resazurin dye based AlamarBlue assay; format: functional
[10] = system: MDA-MB-231; assay: Cytotoxicity against human MDA-MB-231 cells assessed as inhibition of cell proliferation up to 10 uM measured after 72 hrs by resazurin dye based AlamarBlue assay; format: functional
[11] = system: PC-3M; assay: Cytotoxicity against human PC-3M cells assessed as inhibition of cell proliferation up to 10 uM measured after 72 hrs by resazurin dye based AlamarBlue assay; format: functional
[12] = system: Candida albicans; assay: Antifungal activity against Candida albicans ATCC 10261 assessed as inhibition of fungal growth at 100 ug/ml incubated for 24 hrs by CLSI method relative to control; format: functional
[13] = system: Candida albicans; assay: Antifungal activity against Candida albicans ATCC 10261 assessed as inhibition of fungal growth at 50 ug/ml incubated for 24 hrs by CLSI method relative to control; format: functional
[14] = system: NCI-H460; assay: Cytotoxicity against human NCI-H460 cells assessed as inhibition of cell proliferation measured after 72 hrs by resazurin dye based AlamarBlue assay; format: functional; conditions: NCI-H460, 72 h
[15] = system: Escherichia coli; assay: Antibacterial activity against Escherichia coli ATCC 25922 assessed as inhibition of bacterial growth incubated for 24 hrs by CLSI method; format: functional
[16] = system: Pseudomonas aeruginosa; assay: Antibacterial activity against Pseudomonas aeruginosa ATCC 10197 assessed as inhibition of bacterial growth at 25 ug/ml incubated for 24 hrs by CLSI method relative to control; format: functional
[17] = system: Escherichia coli; assay: Antibacterial activity against Escherichia coli ATCC 25922 assessed as inhibition of bacterial growth at 12.5 ug/ml incubated for 24 hrs by CLSI method relative to control; format: functional
[18] = system: Staphylococcus aureus; assay: Antibacterial activity against Staphylococcus aureus ATCC 25923 assessed as inhibition of bacterial growth incubated for 24 hrs by CLSI method; format: functional
[19] = system: Candida albicans; assay: Antifungal activity against Candida albicans ATCC 10261 assessed as inhibition of fungal growth at 6.25 ug/ml incubated for 24 hrs by CLSI method relative to control; format: functional
[20] = system: Candida albicans; assay: Antifungal activity against Candida albicans ATCC 10261 assessed as inhibition of fungus growth incubated for 24 hrs by CLSI method; format: functional
[21] = system: Candida albicans; assay: Antifungal activity against Candida albicans ATCC 10261 assessed as inhibition of fungal growth at 12.5 ug/ml incubated for 24 hrs by CLSI method relative to control; format: functional
[22] = system: Pseudomonas aeruginosa; assay: Antibacterial activity against Pseudomonas aeruginosa ATCC 10197 assessed as inhibition of bacterial growth incubated for 24 hrs by CLSI method; format: functional

For `COC1=CC(=O)[C@@]2([C@H](C=C(C)C)OC(C)=O)O[C@]3(OC)CC(=O)[C@H]4O[C@H]4[C@]3(O)[C@H]2C1=O`, the IC50 [1] was 2.7 µM, the Activity [2] was “Non-Toxic” and the IC50 [3] was 6 µM. For the same compound, the IC50 [4] was 2.9 µM, the IC50 [5] was 6 µM and the Activity [6] was “inactive”.
In the case of `COC1=C[C@@H](O)[C@H]2O[C@H]2C1=O`, the IC50 [1] is reported as 1.7 µM, the IC50 [7] is reported as 3.8 µM and the IC50 [4] is reported as 1.6 µM.
For `COC1=CC(=O)[C@@](O)([C@@H](C=C(C)C)OC(C)=O)CC1=O`, the Activity [8] was “inactive”, the Activity [2] was “Non-Toxic” and the Activity [9] was “inactive”. The Activity [10] was “inactive”, the Activity [6] was “inactive” and the Activity [11] was “inactive”.
For `COC1=CC(=O)[C@H]2O[C@H]2[C@H]1O`, the Activity [8] was “inactive”, the Activity [2] was “Non-Toxic” and the inhibition at 100 µg/mL [12] was 75%. For the same compound, the inhibition at 50 µg/mL [13] was 50%, the Activity [9] was “inactive” and the Activity [10] was “inactive”. The Activity [6] was “inactive” and the Activity [11] was “inactive”.
`COC1=CC(=O)[C@](O)([C@H](C=C(C)C)OC(C)=O)C[C@H]1O` was tested, and the Activity [8] was “inactive”, the Activity [2] was “Non-Toxic” and the Activity [9] was “inactive”. The Activity [10] was “inactive”, the Activity [6] was “inactive” and the Activity [11] was “inactive”.
`COc1cccc2c1C(=O)c1c(O)c3c(c(O)c1C2=O)C[C@@](O)(C(=O)CO)C[C@@H]3O[C@H]1C[C@H](N)[C@H](O)[C@H](C)O1` [DOXORUBICIN] showed an IC50 [3] of 0.3 µM, an IC50 [5] of 0.7 µM and an IC50 [14] of 0.1 µM.
In the case of `CCCCCCC(=O)C(O)C(O)/C=C/C=C/C=C\C(=O)O` (configuration not stated), the Activity [8] is reported as “inactive”, the Activity [2] is reported as “Non-Toxic” and the Activity [9] is reported as “inactive”. For the same compound, the Activity [10] was “inactive”, the Activity [6] was “inactive” and the Activity [11] was “inactive”.
In the case of `COC1=CC(=O)C(O)(C(O)CC(C)(C)O)C[C@H]1O` (some centres not stated), the Activity [8] is reported as “inactive”, the Activity [2] is reported as “Non-Toxic” and the Activity [9] is reported as “inactive”. The Activity [10] was “inactive”, the Activity [6] was “inactive” and the Activity [11] was “inactive”.
With `COC1=CC(=O)[C@H]2O[C@H]2C1=O` the MBC [15] was 25 µg/mL (≈ 162 µM), the MIC [15] was 25 µg/mL (≈ 162 µM) and the IC50 [1] was 1.2 µM. The inhibition at 25 µg/mL [16] was 50%, the inhibition at 12.5 µg/mL [17] was 75% and the MIC [18] was 25 µg/mL (≈ 162 µM). For the same compound, the inhibition at 6.25 µg/mL [19] was 50%, the MFC [20] was 25 µg/mL (≈ 162 µM) and the MIC [20] was 25 µg/mL (≈ 162 µM). The inhibition at 12.5 µg/mL [21] was 75%, the IC50 [3] was 2.5 µM and the IC50 [7] was 7.8 µM. For the same compound, the IC50 [4] was 1.4 µM, the IC50 [5] was 2.2 µM and the IC50 [14] was 2.5 µM. The MIC [22] was 25 µg/mL (≈ 162 µM).
`COC1=CC(=O)[C@@]2([C@H](O)C=C(C)C)O[C@H]2C1=O` gave an IC50 [1] of 1.3 µM, an IC50 [3] of 4.6 µM and an IC50 [7] of 8.3 µM. For the same compound, the IC50 [4] was 1.6 µM, the IC50 [5] was 2.6 µM and the IC50 [14] was 4.8 µM.
For `COC1=CC(=O)[C@@]2([C@@H](O)C=C(C)C)O[C@H]2[C@H]1O`, the Activity [8] was “inactive”, the Activity [2] was “Non-Toxic” and the Activity [9] was “inactive”. The Activity [10] was “inactive”, the Activity [6] was “inactive” and the Activity [11] was “inactive”.
